{
  "source": "paper PMC8429736",
  "about": "“Pharmacological characterization of mutant huntingtin aggregate-directed PET imaging tracer candidates” (Scientific Reports, 2021)",
  "key": {"Q46 aggregates": {"biological_target": "Q46 aggregates", "assay": "RBA competition binding against tritiated 3, Q46 aggregates", "settings": "0.3 nM tritiated 3 as radioligand; 1 µM aggregates; mean ± SD", "experimental": "(§1) For the competition assay format, Q46 or Exon1-Q46 aggregates at 1 µM (sample volume 150 µL) were pre-incubated in a 96-well round bottom plate (Corning, #3365) for 20 min with test compounds at room temperature (assay buffer 50 mM Tris–HCl pH 8.0, 150 mM NaCl). […] Radioligand 3 at 0.3 nM was added and incubated for 1 h at 37 °C.\n(§2) Samples were then transferred onto a 96-well GF/B filter plate (Perkin Elmer, #6005177) using a Filtermate Harvester, aspirated by vacuum and wells washed twice with 200 µL PBS. After drying the filter plates for 1 h at 55 °C the back of the plate was sealed with aluminum cover and 30 µL of scintillation fluid (Perkin Elmer, #6013641) per well was added. The tops of the plates were sealed, and the plates were incubated for 15 min in the dark and counted in a TopCount or MicroBeta2 reader (both Perkin Elmer).\n(§3) Raw sample data collected as counts per minute (cpm) were normalized towards assay controls: 0% inhibition = radioligand + protein + vehicle, 100% inhibition = radioligand + protein + 1 µM unlabeled ligand. A 4-parameter […] fit was applied to generate IC50 values."}, "[1]": {"test_system": "beta amyloid/tau aggregates in post-mortem AD patient brain homogenates", "assay": "ADbh RBA competition format", "format": "binding, human", "settings": "for displacement of bound 5: radioligand 5", "experimental": "(§4) For RBA in vitro binding assays, brain tissue was sliced (50 µm), weighed and homogenized in PBS (Gibco, 14190-94), 0.1% BSA with a glass pestle (10 strokes) at a concentration of 12–15 mg wet tissue per mL buffer. The crude homogenate concentration was then adjusted to 10 mg/mL (wet tissue) and stored as single-use aliquots at -80 °C.\nRBA experiments using Alzheimer’s disease brain homogenates (ADbh RBA) followed the same assay principle as the RBA with recombinant HTT protein, using 0.68 mg/mL homogenate (100 µg per well with 150 µL assay volume) in assay buffer PBS, 0.01% Pluronic F127 (Sigma. P2443) and 1% DMSO after compound addition. […] Incubation at room temperature was conducted for 20 min after compound addition and for 5 h after radioligand addition. For the competition format, raw cpm were normalized towards assay controls as before, to obtain inhibition between 0 and 100%. For saturation binding, raw cpm were converted into nM as before, using a calibration line of total added radioligand, and normalized to mg of added homogenate to finally obtain pmol/mg."}, "[2]": {"biological_target": "phospho-Tau tangles (AT8 antibody) (Homo sapiens, UniProt P10636)", "sequence (P10636 623-695 limits assumed)": "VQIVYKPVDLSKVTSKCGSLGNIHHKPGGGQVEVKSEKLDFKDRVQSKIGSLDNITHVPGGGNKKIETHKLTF", "assay": "HR ARG co-registration with AT8 antibody, human AD brain sections", "format": "binding", "settings": "10 nM CHDI-180, 10 nM CHDI-626, 0.1 nM PiB, 1 nM T808"}, "Exon1-Q46 aggregates": {"biological_target": "T1, Exon1-Q46 aggregates (Homo sapiens, UniProt P42858, INS38QQQQQQQQQQQQQQQQQQQQQQQQQ)", "T1 construct": "MBP-HTT(1-89)Q46-His(6x); MBP (N, cleaved yes); made in house; host or cells: E. coli BL21 (DE3)", "T1 sequence (P42858 with tags, fused parts or gaps with the stated changes)": "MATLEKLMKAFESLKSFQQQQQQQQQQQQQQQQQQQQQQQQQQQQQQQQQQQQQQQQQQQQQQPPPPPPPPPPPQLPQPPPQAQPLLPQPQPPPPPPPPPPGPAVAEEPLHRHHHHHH", "assay": "RBA competition binding against tritiated 3, Exon1-Q46 aggregates", "settings": "0.3 nM tritiated 3 as radioligand; 1 µM aggregates; mean ± SD; read-out: IC50 Exon1-Q46", "experimental": "as §1, §2, §3"}, "[3]": {"biological_target": "beta amyloid plaques (6E10 antibody) (Homo sapiens, UniProt P05067)", "sequence (P05067 672-713 limits assumed)": "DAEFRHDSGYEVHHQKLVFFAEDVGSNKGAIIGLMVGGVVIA", "assay": "HR ARG co-registration with 6E10 antibody, human AD brain sections", "format": "binding", "settings": "10 nM CHDI-180, 10 nM CHDI-626, 0.1 nM PiB, 1 nM T808"}, "[4]": {"biological_target": "beta amyloid/tau aggregates in post-mortem AD patient brain homogenates", "assay": "ADbh RBA saturation (direct) binding", "design": "species or system human", "settings": "100 µg homogenate per well", "experimental": "as §4\nRBA experiments using Alzheimer’s disease brain homogenates (ADbh RBA) followed the same assay principle as the RBA with recombinant HTT protein, using 0.68 mg/mL homogenate (100 µg per well with 150 µL assay volume) in assay buffer PBS, 0.01% Pluronic F127 (Sigma. P2443) and 1% DMSO after compound addition. Competition experiments were conducted with 0.5 nM radioligand 4 and 50 µg homogenate per well. Incubation at room temperature was conducted for 20 min after compound addition and for 5 h after radioligand addition. For the competition format, raw cpm were normalized towards assay controls as before, to obtain inhibition between 0 and 100%. For saturation binding, raw cpm were converted into nM as before, using a calibration line of total added radioligand, and normalized to mg of added homogenate to finally obtain pmol/mg."}},
  "data": [
    {"smiles": "FCCC1CCN(c2ccn3c(n2)nc2ccccc23)CC1", "note": "[Compound T808]", "values": [
      {"measurement": "IC50", "setting": "Q46 aggregates", "result": "> 333", "unit": "nM"},
      {"measurement": "heterologous competition with radioligand 4", "setting": "[1]; radioligand 4", "result": "could not compete"},
      {"measurement": "displacement of bound 5", "setting": "[1]", "result": "~ 50%"},
      {"measurement": "co-registration with AT8-positive phospho-Tau immunoreactivity", "setting": "[2]", "result": "co-registered with AT8"},
      {"measurement": "IC50", "setting": "Exon1-Q46 aggregates", "result": "> 333", "unit": "nM"},
      {"measurement": "co-registration with 6E10-positive beta amyloid plaques", "setting": "[3]", "result": "not with 6E10 antibody"}
    ]},
    {"smiles": "CNc1ccc(-c2nc3ccc(O)cc3s2)cc1F", "note": "[Flutemetamol]", "values": [
      {"measurement": "heterologous competition with radioligand 4", "setting": "[1]; radioligand 4", "result": "complete displacement"},
      {"measurement": "displacement of bound 5", "setting": "[1]", "result": "complete displacement"}
    ]},
    {"smiles": "CNc1ccc(-c2nc3ccc(O)cc3s2)cc1", "note": "[PiB]", "values": [
      {"measurement": "IC50", "setting": "Q46 aggregates", "result": "> 333", "unit": "nM"},
      {"measurement": "IC50", "setting": "Exon1-Q46 aggregates", "result": "72.5 ± 0.4", "unit": "nM"},
      {"measurement": "Kd", "setting": "[4]", "result": 3.4, "unit": "nM"}
    ]},
    {"smiles": "[11CH3]Nc1ccc(-c2nc3ccc(O)cc3s2)cc1", "note": "[PiB]", "values": [
      {"measurement": "heterologous competition with radioligand 4", "setting": "[1]; radioligand 4", "result": "complete displacement"},
      {"measurement": "displacement of 4 at 0.1 µM", "setting": "[1]; radioligand 4, compound 0.1 µM", "result": "fully displace"},
      {"measurement": "displacement of bound 5", "setting": "[1]", "result": "complete displacement"},
      {"measurement": "co-registration with AT8-positive phospho-Tau immunoreactivity", "setting": "[2]", "result": "not with AT8 immunoreactivity"},
      {"measurement": "Bmax, AD brain homogenate", "setting": "[4]", "result": 10.5, "unit": "pmol/mg"}
    ]}
  ]
}
